Measurements taken from paper PMC10154249, “Unique progerin C-terminal peptide ameliorates Hutchinson–Gilford progeria syndrome phenotype by rescuing BUBR1” (Nature Aging, 2023).
Values joined by “and” are separate entries in the source; they are usually repeats but may differ in a detail not shown here. Equal entries are not always repeated. “Also recorded” adds a separate entry of the source.

How the values were obtained:
[1] = tested on: progerin–PTBP1 interaction; test: CoIP of progerin and PTBP1 in HEK-293T cells; type: cell-based; details: CoIP in HEK-293T; HGPS cells
Experimental: Detailed descriptions of CoIP were described previously[55],[56]. Cells were harvested and washed three times in cold PBS, then lysed in CoIP buffer (25 mM Tris-HCl (pH 7.5), 150 mM KCl, 5 mM EDTA, and 0.5% NP-40) plus protease inhibitor cocktail tablet (Roche). Incubate on ice and shock lysates on the vortex shaker 15 times for 30 s each. Microcentrifuge in 12,000g for 15 min at 4 °C, collect the supernatant, and incubate with 3 μg primary antibodies with gentle shaking overnight at 4 °C, followed by adding 20–40 μl Pure Proteome Protein A/G Mix Magnetic Beads (Millipore, catalog no. […]02) for 3 h. Wash the beads three times with 1 ml CoIP buffer for 8 min each, resuspend in 50 μl 1× loading buffer, and incubate at 100 °C for 8 min. Throw beads away and analyze by immunoblotting.

IMR90 cells = test: CCK8 cell viability of IMR90 cells; type: cell-based, human; details: CCK8, UPCP 0, 10, 20, 30 μM, 0–72 h (also Ki67, CyclinA2, survival rate)
Experimental: Cell viability was assessed using the Cell Counting Kit-8 (CCK8) (APE, catalog no. k1018). The cells were plated in triplicate in 96-well plates (typically 10,000 cells per 100 μl per well) and were incubated with fresh medium for 24 h. Then, the cells were incubated with different concentrations (0 μM, 10 μM, 20 μM, 30 μM) of UPCP for 0 h, 24 h, 48 h or 72 h. CCK8 solution (10 μl) was added to the well for a 2 h incubation at 37 °C. Absorbance was measured at 450 nm with a 96-well plate reader (Tecan Infinite M NANO^+). Data were analyzed and further processed in i-control v.2.0 and GraphPad Prism v.7.

[2] = tested on: skin of Lmna^G609G/G609G mice; test: Histology of skin (epidermis, subcutaneous fat layers); type: in vivo, mouse; details: 13 weeks; for subcutaneous fat layers, Mean / subcutaneous fat layers: 20 mg kg^–1 i.p.
Experimental: (§1) For UPCP injection, 14-day-old Lmna^G609G/G609G mice were injected intraperitoneally with either PBS or UPCP (20 mg kg^–1, every other day) and wild-type mice were injected with PBS. […] Bodyweight and lifespan were monitored after UPCP treatment. The survival rate was analyzed by the Kaplan–Meier method. We only included mice that were of sufficient bodyweight at the start of the experiment, typically at least 80% of the average littermate weight of the same sex and genotype. All animals meeting criteria for inclusion were then divided randomly into three groups according to genotype (Lmna^+/+, Lmna^G609G/G609G-Mock and Lmna^G609G/G609G-UPCP).
(§2) For histological analyses, mice of the indicated genotypes were perfused with PBS, then with 4% paraformaldehyde (PFA). Whole organs were incubated in 4% PFA at 4 °C for 16 h. All samples were paraffin embedded and sectioning by Servicebio. Subsequently, the tissues were deparaffinized and rehydrated before hematoxylin-eosin (HE) or Masson staining or immunohistochemistry (IHC). HE staining was performed using an HE Kit (Absin, catalog no. abs9217), and Masson staining was performed using Masson’s Trichrome Stain Kit (Absin, catalog no. abs9347) according to the manufacturer’s instructions. The thickness of the layers or the areas of fibrosis in the tissues were calculated using ImageJ software by a blinded investigator. For IHC, the sections were completed by the Servicebio. The images were acquired by a microscope (Leica DMi8) and analyzed with Leica Application Suite X v.3.6.0.24 (Leica). For BubR1, cytoplasmic staining in cells was scored on the intensity of staining and the proportion of positive cells by a blinded investigator. The intensity of the staining was graded as 0 (negative, no color), 1 (low positive, light yellow), 2 (positive, brown yellow) or 3 (high positive, brown), and the number of positive cells was graded as 0 (<5%), 1 (5–25%), 2 (25–50%), 3 (51–75%) or 4 (>75%). The final score was defined as staining number score multiplied by staining color score. For lamin B1, p21 or IL-6, the proportion of positive cells was used to quantify the expression of protein in tissues by a blinded investigator.

[3] = tested on: muscle of Lmna^G609G/G609G mice; test: Masson staining of muscle (fibrosis); type: in vivo, mouse; details: 13 weeks
Experimental: as §1, §2

HGADFN003 cells = test: CyclinA2 immunofluorescence of HGADFN003 cells; type: cell-based, human
Experimental: Immunofluorescence was performed as described previously. Cells were plated on cover slips in 12-well plates, left overnight before the treatment. Cells were fixed in 1% formaldehyde in culture medium for 10 min at 37 °C and permeabilized with 0.2% Triton X-100 in PBS for 10 min at room temperature. Cells were washed twice in PBS and blocked for 1 h with 5% BSA in PBS and then incubated with primary antibodies at 4 °C overnight, washed three times in PBS and incubated with secondary antibodies for 1 h at room temperature. Cell nuclei were counterstained with a 500 nM concentration of 4,6-diamidino-2-phenylindole (DAPI) (Sigma). Images were acquired by a fluorescence microscope (OLYMPUS FV-1000, Carl Zeiss LSM880 or Leica DMi8) and analyzed with software NIS-Elements AR v.5.0.1 (Nikon), FLUOVIEW v.4.2b (OLYMPUS), ZEN v.2.3 SP1 (Carl Zeiss) and Leica Application Suite X v.3.6.0.24 (Leica). Cells were quantified by investigators who were blinded to the identity of the analyzed cell.

[4] = 20 mg kg^–1 i.p. every other day

Substance: H-YGRKKRRQRRRYNLRSRTVLCGTCGQPADKASASGSGAQSPQNCSIM-OH (cysteines drawn unpaired) [UPCP, unique progerin C-terminal peptide]
- interaction of PTBP1 and progerin [1]: weakened the interaction of PTBP1 and progerin
- effect on proliferation of normal cells (IMR90 cells): had little effect on proliferation of IMR90 cells; also recorded: no obvious effect on the proliferation of normal cells
- dermal fat loss [2, 4]: improved
- epidermal thinning [2, 4]: improved
- subcutaneous fat layers, Mean ([2]; sample 1, mean of 3 measurements): 0.2193 mm
- subcutaneous fat layers ([2]; sample 1, measurement 1): 0.2 mm
- subcutaneous fat layers ([2]; sample 1, measurement 2): 0.243 mm
- subcutaneous fat layers ([2]; sample 1, measurement 3): 0.215 mm
- subcutaneous fat layers, Mean ([2]; sample 2, mean of 3 measurements): 0.1593 mm
- subcutaneous fat layers ([2]; sample 2, measurement 1): 0.146 mm
- subcutaneous fat layers ([2]; sample 2, measurement 2): 0.185 mm
- subcutaneous fat layers ([2]; sample 2, measurement 3): 0.147 mm
- subcutaneous fat layers, Mean ([2]; sample 3, mean of 3 measurements): 0.1467 mm
- subcutaneous fat layers ([2]; sample 3, measurement 1): 0.174 mm
- subcutaneous fat layers ([2]; sample 3, measurement 2): 0.153 mm
- subcutaneous fat layers ([2]; sample 3, measurement 3): 0.113 mm
- fibrosis, muscle [3, 4]: decrease of fibrosis in the muscle
- fibrosis area/ total area, muscle ([3]; 20 mg kg^–1 i.p., replicate 1): 0.003895 and 0.3895%
- fibrosis area, muscle ([3]; 20 mg kg^–1 i.p., replicate 1, total area 340.18): 1.325
- fibrosis area, muscle ([3]; 20 mg kg^–1 i.p., replicate 2, total area 353.151): 1.196
- fibrosis area, muscle ([3]; 20 mg kg^–1 i.p., replicate 3, total area 365.081): 2.133
- CyclinA2 positive cells (HGADFN003 cells; HGADFN003, 2h, replicate 1): 25%
- CyclinA2 positive cells (HGADFN003 cells; HGADFN003, 2h, replicate 2): 35.7143%
- CyclinA2 positive cells (HGADFN003 cells; HGADFN003, 2h, replicate 3): 33.3333%
- CyclinA2 positive cells (HGADFN003 cells; HGADFN003, 4h, replicate 1): 42.8571%
- CyclinA2 positive cells (HGADFN003 cells; HGADFN003, 4h, replicate 2): 43.4783%
- CyclinA2 positive cells (HGADFN003 cells; HGADFN003, 4h, replicate 3): 31.8182%
- CyclinA2 positive cells (HGADFN003 cells; HGADFN003, 6h, replicate 1): 35.2941%
- CyclinA2 positive cells (HGADFN003 cells; HGADFN003, 6h, replicate 2): 33.3333%
- CyclinA2 positive cells (HGADFN003 cells; HGADFN003, 6h, replicate 3): 45.8333%
- CyclinA2 positive cells (HGADFN003 cells; HGADFN003, 24h, replicate 1): 42.3077%
- CyclinA2 positive cells (HGADFN003 cells; HGADFN003, 24h, replicate 2): 41.1765%
- CyclinA2 positive cells (HGADFN003 cells; HGADFN003, 24h, replicate 3): 48.5714%
- CyclinA2 positive cells (HGADFN003 cells; HGADFN003, 48h, replicate 1): 59.0909%
- CyclinA2 positive cells (HGADFN003 cells; HGADFN003, 48h, replicate 2): 58.3333%
- CyclinA2 positive cells (HGADFN003 cells; HGADFN003, 48h, replicate 3): 56.7568%
- level of CyclinA2 (HGADFN003 cells; HGPS cells): increased level of CyclinA2
